Here are results for 12 compounds from BindingDB's records for doi:10.1016/j.bmcl.2005.07.021 (Johnson & Johnson Pharmaceutical Research and Development, 2005).

SMILES strings stand for the structures. pIC50: −log10 of the molar value. A value given as a limit tells only on which side of the number the result lay.

Sequence of Glycogen phosphorylase, muscle form (Oryctolagus cuniculus) (P00489 whole entry, looked up): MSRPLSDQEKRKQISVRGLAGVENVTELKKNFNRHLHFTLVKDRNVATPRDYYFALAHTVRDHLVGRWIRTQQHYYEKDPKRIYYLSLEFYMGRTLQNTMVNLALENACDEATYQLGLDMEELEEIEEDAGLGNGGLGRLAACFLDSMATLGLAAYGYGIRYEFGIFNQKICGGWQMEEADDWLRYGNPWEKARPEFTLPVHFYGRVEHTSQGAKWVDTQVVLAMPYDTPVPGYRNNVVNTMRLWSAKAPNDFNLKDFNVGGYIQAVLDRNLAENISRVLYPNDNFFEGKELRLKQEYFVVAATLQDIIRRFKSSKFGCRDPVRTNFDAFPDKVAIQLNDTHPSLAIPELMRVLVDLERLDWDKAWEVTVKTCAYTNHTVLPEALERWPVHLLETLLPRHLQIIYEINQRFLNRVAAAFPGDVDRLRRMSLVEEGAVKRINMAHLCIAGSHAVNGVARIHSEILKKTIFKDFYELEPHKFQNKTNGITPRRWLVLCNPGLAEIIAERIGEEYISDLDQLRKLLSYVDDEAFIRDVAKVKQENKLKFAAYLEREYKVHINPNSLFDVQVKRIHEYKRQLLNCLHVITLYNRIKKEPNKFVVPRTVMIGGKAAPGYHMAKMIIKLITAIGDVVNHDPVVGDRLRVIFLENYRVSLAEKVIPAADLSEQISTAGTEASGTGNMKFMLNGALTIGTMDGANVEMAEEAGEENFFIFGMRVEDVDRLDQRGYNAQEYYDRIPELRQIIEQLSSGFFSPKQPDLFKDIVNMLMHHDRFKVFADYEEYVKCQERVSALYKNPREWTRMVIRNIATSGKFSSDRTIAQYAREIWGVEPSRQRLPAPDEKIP

The experiment addresses Glycogen phosphorylase, muscle form (Oryctolagus cuniculus) (UniProt P00489). Briefly: Inhibitory concentration against glycogen phosphorylase of rabbit muscle.
On to `CN(c1ccc(C(=O)Nc2ccon2)cc1)c1nc2ccccc2n(C)c1=O`, for which the pIC50 (usually −log10 of the IC50, conventionally taken in molar units) was under 5.00.
To `Cn1c(=O)c(Nc2ccc(-c3ccc[nH]3)cc2)nc2ccccc21` [1-Methyl-3-[4-(1H-pyrrol-2-yl)-phenylamino]-1H-quinoxalin-2-one] belongs 5.60.
`Cn1c(=O)c(Nc2ccc(NC(=O)c3ccc[nH]3)cc2)nc2ccccc21` [1H-Pyrrole-2-carboxylic acid [4-(4-methyl-3-oxo-3,4-dihydro-quinoxalin-2-ylamino)-phenyl]-amide] had a pIC50 of under 5.00.
To `Cn1c(=O)c(Nc2ccc(-c3ccoc3)cc2)nc2ccccc21` [3-(4-Furan-3-yl-phenylamino)-1-methyl-1H-quinoxalin-2-one] belongs 5.30.
To `O=c1[nH]c2ccccc2nc1Nc1ccccc1` [3-Phenylamino-1H-quinoxalin-2-one] belongs 5.60.
To `CC(C)n1c(=O)c(Nc2ccc(C(=O)NCc3cccs3)cc2)nc2ccccc21` [4-(4-Isopropyl-3-oxo-3,4-dihydro-quinoxalin-2-ylamino)-N-thiophen-2-ylmethyl-benzamide] belongs under 5.00; to `Cn1c(=O)c(Nc2ccc(C(=O)NCCc3cccs3)cc2)nc2ccccc21` [4-(4-Methyl-3-oxo-3,4-dihydro-quinoxalin-2-ylamino)-N-(2-thiophen-2-yl-ethyl)-benzamide], under 5.00; to `CN(C)CCn1c(=O)c(Nc2ccc(C(=O)NCc3cccs3)cc2)nc2ccccc21` [4-[4-(2-Dimethylamino-ethyl)-3-oxo-3,4-dihydro-quinoxalin-2-ylamino]-N-thiophen-2-ylmethyl-benzamide], 6.15.
`O=C(NCc1cccs1)c1ccc(Nc2nc3ccccc3n(CCO)c2=O)cc1` [4-[4-(2-Hydroxy-ethyl)-3-oxo-3,4-dihydro-quinoxalin-2-ylamino]-N-thiophen-2-ylmethyl-benzamide]: the pIC50 is 6.49.
To `O=C(O)Cn1c(=O)c(Nc2ccc(C(=O)NCc3cccs3)cc2)nc2ccccc21` [(2-Oxo-3-{4-[(thiophen-2-ylmethyl)-carbamoyl]-phenylamino}-2H-quinoxalin-1-yl)-acetic acid] belongs 5.24; to `Cn1c(=O)c(Nc2ccc(NC(=O)c3ccco3)cc2)nc2ccccc21` [Furan-2-carboxylic acid [4-(4-methyl-3-oxo-3,4-dihydro-quinoxalin-2-ylamino)-phenyl]-amide], 5.60; to `Cn1c(=O)c(Nc2cccc(NC(=O)c3ccno3)c2)nc2ccccc21` [Isoxazole-5-carboxylic acid [3-(4-methyl-3-oxo-3,4-dihydro-quinoxalin-2-ylamino)-phenyl]-amide], under 5.00.
